Test system: Escherichia coli C41
Format: cell-based
Details: compound itself not applied to cells

`CC(C)=CCC/C(C)=C/CC/C(C)=C\CC/C(C)=C/COP(=O)(O)OP(=O)(O)O` [E,Z,E-GGPP, E,Z,E-Geranylgeranyl pyrophosphate] was tested, and the “bactericidal effect on E. coli” value was “bactericidal agent”.

Reference: patent US12146177B2, “Methods of making and using E,Z,E-geranylgeranyl diphosphate” (WiSys Technology Foundation, Inc., priority 2020, dated 2024)
